Results as given in US20190322676A1, “CERAMIDE GALACTOSYLTRANSFERASE INHIBITORS FOR THE TREATMENT OF DISEASE” (BioMarin Pharmaceutical Inc., priority 2016, published 2019).
Where a name gives a salt, the structure may show the parent alone.

target: T1, human CGT (ceramide galactosyltransferase), CHO/CGT lysate (Homo sapiens, UniProt Q16880); assay: CGT enzyme assay, LC-MS/MS readout (Table 1 ranges without asterisk); type: biochemical; settings: LC-MS/MS method (range without asterisk)
T1 construct: Full-length human CGT cDNA was cloned into the BamH1/Xho1 site of pcDNA3.1 (+); expressed in transfected cells; host or cells: Chinese hamster ovary (CHO) cells; lysate prepared with M-PER
T1 sequence (Q16880 21-541): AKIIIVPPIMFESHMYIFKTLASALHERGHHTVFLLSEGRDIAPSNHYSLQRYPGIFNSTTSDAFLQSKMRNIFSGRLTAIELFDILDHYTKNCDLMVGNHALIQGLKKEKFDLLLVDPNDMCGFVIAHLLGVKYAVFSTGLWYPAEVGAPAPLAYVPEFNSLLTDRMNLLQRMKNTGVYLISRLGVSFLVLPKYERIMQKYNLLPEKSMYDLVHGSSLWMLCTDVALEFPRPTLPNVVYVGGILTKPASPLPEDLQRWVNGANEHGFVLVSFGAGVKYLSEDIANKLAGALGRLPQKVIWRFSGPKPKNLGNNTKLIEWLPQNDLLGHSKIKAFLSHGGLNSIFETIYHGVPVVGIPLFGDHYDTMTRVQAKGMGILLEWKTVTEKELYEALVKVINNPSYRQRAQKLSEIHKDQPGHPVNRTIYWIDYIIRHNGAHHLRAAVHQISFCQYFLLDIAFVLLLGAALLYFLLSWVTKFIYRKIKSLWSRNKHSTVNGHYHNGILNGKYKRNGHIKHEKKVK
Method: Full-length human CGT cDNA was cloned into the BamH1/Xho1 site of pcDNA3.1 (+) mammalian expression vector (V90-20, Invitrogen, Carlsbad, Calif.) and the plasmid was transfected into Chinese hamster ovary (CHO) cells. Lysate was prepared using M-PER (Mammalian Protein Extraction Reagent, ThermoFisher Scientific, Grand Island, N.Y.) in the presence of a protease inhibitor cocktail (P8340, Sigma, Saint Louis, Mo.). Each 100 mm dish (100% confluent, approximately 1×10^7 cells) was lysed with 250 μL of M-PER containing protease inhibitors. Protein concentration was determined using a Pierce BCA protein assay kit (ThermoFisher Scientific). Four micrograms of CHO/CGT lysate was incubated with various concentrations of a compound (0.001 μM-50 μM) in 10 mM HEPES (pH 7.2) containing 35 μM dioleoylphosphatidylcholine, 5 mM MgCl2, 5 mM MnCl2, 1% BSA, 15 mM KCl, 1 mM EGTA, 8 mM CHAPS, 10 μM C6-NBD-dihydro-ceramide and 17.5 μM UDP-galactose in a final reaction volume of 20 μL at 37° C. for 1 hour. The final concentration of DMSO was 0.5% in both compound-treated and mock-treated samples. Tween 80 (0.01%) was optionally added to the reaction mixture to help solubilize the compounds. Each individual reaction was diluted with 80 μL of methanol:acetronitrile (1:3) containing 5 μM N-docdecanoyl-NBD-galactosylceramide (internal standard) to stop the reaction. 200 μL H2O:acetonitile (1:1) was added to precipitate the protein. After sufficient mixing, the plates were centrifuged at 2469 g for 38 minutes, 200 μL of supernatant was transferred to a LC/MS 96-deep well plate and a second spin was performed at 2469 g for 10 minutes. The final supernatant was injected in triplicate for RapidFire/MS/MS analysis.
An alternative LC-MS/MS based method was also used. For the LC-MS/MS readout, the CGT assay was identical to the one described above except for the following: […] was used as the CGT enzyme source, C12:0 (2R—OH) ceramide was used as the ceramide substrate and 0.3 μM Cl2 ceramide was used as the internal standard. Tween 80 was not present in the reaction mixture. The final supernatant was injected for LC-MS/MS analysis.
Quantitative analysis using the LC-MS/MS method: The quantitative analysis of C12:0 (2R—OH) ceramide and C12:0 (2R—OH) galactosylceramide by LC-MS/MS was performed on a Shimadzu ultra-fast liquid chromatography (Shimadzu, Japan) coupled with API 4000 mass spectrometer (Applied Biosystems, Concord, Ontario, Canada). Analyst 1.5 software packages (Applied Biosystems) were used to control the LC-MS/MS system, as well as for data acquisition and processing. 10 μL of sample was loaded onto a Luna C18 column (50 mm×2.0 mm, I.D. 3 μm, 100A) (Phenomenex, USA) for chromatographic separation. Mobile phase A consisted of HPLC grade water with 0.1% formic acid (v/v) and mobile phase B consisted of acetonitrile supplemented with 0.1% formic acid (v/v). The separation was achieved using the following gradient program at a flow rate of 0.8 mL/min: the initial mobile phase was 70% B, which was increased in a linear fashion to 95% B in 1.50 min, and then maintained at 95% B until 3.50 min. The mobile phase was then reset to 70% B within 0.01 min, and maintained until 4.50 min. The total run time was 4.50 min. The MS/MS detection was performed in ESI positive mode. The mass transition selected for quantification was m/z 498.5-264.3 for C12:0 (2R—OH) ceramide under the collision energy of 38.8 V, and the mass transition of C12:0 (2R—OH) galactosylceramide was m/z 660.6-264.5 under the collision energy of 51 V. The mass transition of Cl2 ceramide which was used as internal standard was m/z 482.4-264.3 under the collision energy of 33V. Compound IC50 values were calculated using a protocol identical to the one described for the RapidFire method (see Table 1, where data ranges without an asterix correspond to analysis using the LC-MS/MS method).
Using the above CGT enzyme and CGT cellular assays, the compounds of Table 1 were tested. […]

SMILES	IC50
NC1CC2CCC(C1)N2C(=O)[C@H](NS(=O)(=O)c1ccc(-c2ccc(F)cc2)cc1)C(F)(F)c1ccc(Br)cc1 (stereo partly drawn) [Compound 3-2, N-((2S)-3-(3-amino-8-azabicyclo[3.2.1]octan-8-yl)-1-(4-bromophenyl)-1,1-difluoro-3-oxopropan-2-yl)-4′-fluoro-[1,1′-biphenyl]-4-sulfonamide]	30 to 100 µM
NC1CC2CCC(C1)N2C(=O)[C@H](NS(=O)(=O)c1ccc(Oc2ccc(Cl)cn2)cc1)C(F)(F)c1ccc(Br)cc1 (stereo partly drawn) [Compound 18-2, N-((2S)-3-(3-amino-8-azabicyclo[3.2.1]octan-8-yl)-1-(4-bromophenyl)-1,1-difluoro-3-oxopropan-2-yl)-4-((5-chloropyridin-2-yl)oxy) benzenesulfonamide trifluoroacetate]	30 to 100 µM
CCC(CC)COc1ccc(S(=O)(=O)N[C@@H](C(=O)N2C3CCC2CC(N)C3)C(F)(F)c2ccc(Br)cc2)cc1 (stereo partly drawn) [Compound 2-2, N-((2S)-3-(3-amino-8-azabicyclo[3.2.1]octan-8-yl)-1-(4-bromophenyl)-1,1-difluoro-3-oxopropan-2-yl)-4-(2-ethylbutoxy)benzenesulfonamide]	30 to 100 µM
CC(C)COc1ccc2cc(S(=O)(=O)N[C@H](C(=O)N3C4CCC3CC(N)C4)C(F)(F)c3ccc(Br)cc3)ccc2c1 (stereo partly drawn) [Compound 7-1, N-((2R)-3-(3-amino-8-azabicyclo[3.2.1]octan-8-yl)-1-(4-bromophenyl)-1,1-difluoro-3-oxopropan-2-yl)-6-isobutoxynaphthalene-2-sulfonamide]	1 to 10 µM
CC(C)Oc1ccc2cc(C(=O)C(=O)N[C@@H](C(=O)N3C4CCC3CC(N)C4)C(F)(F)c3ccc(Br)cc3)ccc2c1 (stereo partly drawn) [Compound 9-2, N-((2S)-3-(3-amino-8-azabicyclo[3.2.1]octan-8-yl)-1-(4-bromophenyl)-1,1-difluoro-3-oxopropan-2-yl)-2-(6-isopropoxynaphthalen-2-yl)-2-oxoacetamide trifluoroacetate]	30 to 100 µM
CC(C)Oc1ccc2cc(S(=O)(=O)N[C@@H](C(=O)N3C4CCC3CC(N)C4)C(F)(F)c3ccc(Cl)cc3)ccc2c1 (stereo partly drawn) [Compound 8-2, N-((2S)-3-(3-amino-8-azabicyclo[3.2.1]octan-8-yl)-1-(4-chlorophenyl)-1,1-difluoro-3-oxopropan-2-yl)-6-isopropoxynaphthalene-2-sulfonamide trifluoroacetate]	10 to 30 µM
CC(C)Oc1ccc2cc([C@H](O)C(=O)N[C@H](C(=O)N3C4CCC3CC(N)C4)C(F)(F)c3ccc(Br)cc3)ccc2c1 (stereo partly drawn) [Compound 19-3, (2S)—N-((2R)-3-(3-amino-8-azabicyclo[3.2.1]octan-8-yl)-1-(4-bromophenyl)-1,1-difluoro-3-oxopropan-2-yl)-2-hydroxy-2-(6-isopropoxynaphthalen-2-yl)acetamide trifluoroacetate]	1 to 10 µM
NC1CC2CCC(C1)N2C(=O)[C@H](NS(=O)(=O)c1cccc(OCc2ccc(F)cc2)c1)C(F)(F)c1ccc(Br)cc1 (stereo partly drawn) [Compound 17-2, N-((2S)-3-(3-amino-8-azabicyclo[3.2.1]octan-8-yl)-1-(4-bromophenyl)-1,1-difluoro-3-oxopropan-2-yl)-3-((4-fluorobenzyl)oxy) benzenesulfonamide trifluoroacetate]	30 to 100 µM
CC(C)Oc1ccc2cc([C@@H](O)C(=O)N[C@H](C(=O)N3C4CCC3CC(N)C4)C(F)(F)c3ccc(Br)cc3)ccc2c1 (stereo partly drawn) [Compound 19-5, (2R)—N-((2R)-3-(3-amino-8-azabicyclo[3.2.1]octan-8-yl)-1-(4-bromophenyl)-1,1-difluoro-3-oxopropan-2-yl)-2-hydroxy-2-(6-isopropoxynaphthalen-2-yl)acetamide trifluoroacetate]	10 to 30 µM
NC1CC2CCC(C1)N2C(=O)[C@H](NS(=O)(=O)c1ccc(OCC2CCCC2)cc1)C(F)(F)c1ccc(Br)cc1 (stereo partly drawn) [Compound 20-2, N-((2S)-3-(3-amino-8-azabicyclo[3.2.1]octan-8-yl)-1-(4-bromophenyl)-1,1-difluoro-3-oxopropan-2-yl)-4-(cyclopentylmethoxy) benzenesulfonamide trifluoroacetate]	10 to 30 µM
CCCCOc1ccc(S(=O)(=O)N[C@H](C(=O)N2C3CCC2CC(N)C3)C(F)(F)c2ccc(Br)cc2)cc1 (stereo partly drawn) [Compound 22-1, N-((2R)-3-(3-amino-8-azabicyclo[3.2.1]octan-8-yl)-1-(4-bromophenyl)-1,1-difluoro-3-oxopropan-2-yl)-4-butoxybenzenesulfonamide]	1 to 10 µM
NC1CC2CCC(C1)N2C(=O)[C@@H](NS(=O)(=O)c1ccc2cc(Oc3ccccn3)ccc2c1)C(F)(F)c1ccc(Br)cc1 (stereo partly drawn) [Compound 10-1, N-((2R)-3-(3-amino-8-azabicyclo[3.2.1]octan-8-yl)-1-(4-bromophenyl)-1,1-difluoro-3-oxopropan-2-yl)-6-(pyridin-2-yloxy)naphthalene-2-sulfonamide trifluoroacetate]	30 to 100 µM
NC1CC2CCC(C1)N2C(=O)[C@@H](NS(=O)(=O)c1ccc(OCC2CCCC2)cc1)C(F)(F)c1ccc(Br)cc1 (stereo partly drawn) [Compound 20-1, N-((2R)-3-(3-amino-8-azabicyclo[3.2.1]octan-8-yl)-1-(4-bromophenyl)-1,1-difluoro-3-oxopropan-2-yl)-4-(cyclopentylmethoxy)benzenesulfonamide trifluoroacetate]	1 to 10 µM
NC1CC2CCC(C1)N2C(=O)[C@@H](NS(=O)(=O)c1ccc(OCc2ccc(Cl)cc2)cc1)C(F)(F)c1ccc(Br)cc1 (stereo partly drawn) [Compound 15-1, N-((2R)-3-(3-amino-8-azabicyclo[3.2.1]octan-8-yl)-1-(4-bromophenyl)-1,1-difluoro-3-oxopropan-2-yl)-4-((4-chlorobenzyl)oxy)benzenesulfonamide trifluoroacetate]	1 to 10 µM
NC1CC2CCC(C1)N2C(=O)[C@H](NS(=O)(=O)c1ccc(OCc2ccc(Cl)cc2)cc1)C(F)(F)c1ccc(Br)cc1 (stereo partly drawn) [Compound 15-2, N-((2S)-3-(3-amino-8-azabicyclo[3.2.1]octan-8-yl)-1-(4-bromophenyl)-1,1-difluoro-3-oxopropan-2-yl)-4-((4-chlorobenzyl)oxy) benzenesulfonamide trifluoroacetate]	30 to 100 µM
CC(C)COc1ccc2cc(S(=O)(=O)N[C@@H](C(=O)N3C4CCC3CC(N)C4)C(F)(F)c3ccc(Br)cc3)ccc2c1 (stereo partly drawn) [Compound 7-2, N-((2S)-3-(3-amino-8-azabicyclo[3.2.1]octan-8-yl)-1-(4-bromophenyl)-1,1-difluoro-3-oxopropan-2-yl)-6-isobutoxynaphthalene-2-sulfonamide]	30 to 100 µM
